Results taken from a melting point compilation (Tetko et al.; mined from patent text by program, amines drawn as free bases though some values may be those of a salt).

First: COc1ccc(N2CCC(=O)N(c3ccc(F)cc3)CC2)c(-c2ccc(N(C)C)cc2)n1
Second: COC(=O)c1ccccc1N(c1ccccc1)C1(c2ccc(N(C)C)cc2)OC(=O)c2ccccc21 (stereo unspecified)
The melting point of the first is higher: 130 to 139 °C for the first, 92.5 to 102 °C for the second.

First: NC(=O)COc1cc(C(F)(F)F)cc(C(F)(F)F)c1
Second: Cn1c(CC(=O)O)ccc1C(=O)c1ccc(C(F)(F)F)cc1
The melting point of the first is lower: 139 to 141 °C for the first, 152 to 154 °C for the second.

First: CCc1cc(C(=O)c2ccccc2Cl)c(-n2c(C)nnc2CNC(=O)c2[nH]c3ccccc3c2C)s1
Second: CC(=O)Nc1cccc2c(=O)[nH]c3ccccc3c(=O)c12
The melting point of the first is lower: 143 to 147 °C for the first, 270 to 272 °C for the second.

Compared with `O=C(O)C(F)(F)c1cccc(OCc2ccccc2Cl)c1OCc1ccccc1Cl`, `COc1cc(Nc2c(C#N)cnc3cc(-c4cccc(NC(C)=O)c4)ccc23)c(Cl)cc1Cl` is higher in melting point: 55 to 57 °C for the first, 262 to 263 °C for the second.

Compared with `CCOC(=O)Nc1cccc(OC)c1[N+](=O)[O-]`, `CCOC(=O)C(C)Oc1ccc(Nc2ccc(C(F)(F)F)cc2N)cc1` (stereo unspecified) is lower in melting point: 131 to 132 °C for the first, 78 °C for the second.

First: CN(C)CCCc1cc(C(=O)Nc2ccc(-c3ccc(C(=O)O)cc3)cc2)ccc1O
Second: CC(C)(C)Oc1ccc(C(=O)NCCCCCCCNC(=O)c2ccc(OC(C)(C)C)cc2)cc1
The melting point of the first is higher: 278 to 280 °C for the first, 135 to 136 °C for the second.

Compared with `CCOC(C)O[C@H]1C(=O)N(C(=S)Nc2ccccc2)[C@H]1c1ccccc1` (stereo partly specified), `C=CCC1(c2ccccc2)OC(C(=O)OC)Oc2ccc(Cl)cc21` (stereo unspecified) is lower in melting point: 108 to 112 °C for the first, 70 °C for the second.

First: CC(=O)c1cc2c(c(O)c1O)OC(C)(C)CC2C (stereo unspecified)
Second: CCCc1c(OCC#CCCCC(=O)O)ccc(C(C)=O)c1O
The melting point of the first is higher: 153 to 154 °C for the first, 84 to 86 °C for the second.

First: NS(=O)(=O)c1cc2cccc(O)c2s1
Second: CS(=O)CCNC(=O)c1cc2cc(S(N)(=O)=O)sc2s1 (stereo unspecified)
The melting point of the first is lower: 196 to 198 °C for the first, 242 to 243 °C for the second.

Compared with `O=C1Nc2cc(C(F)(F)F)ccc2N2CCN(CCc3ccncc3)CC12` (stereo unspecified), `COc1ccc2c(n1)c(CCNC(C)=O)c1n2CCCc2ccccc2-1` is lower in melting point: 204 to 206 °C for the first, 73 to 74 °C for the second.

First: O=C(NOCC(O)CN1CCCCC1)NC1CCCCC1 (stereo unspecified)
Second: O=C(OCCc1noc(-c2ccc(CN3CCCCCC3)s2)n1)c1ccccc1
The melting point of the first is lower: 108 to 110 °C for the first, 121 to 123 °C for the second.

First: CN(C)C(=S)Oc1ccc(C(=O)c2ccccc2C#N)cc1
Second: O=[N+]([O-])c1cc(F)ccc1Sc1ccccc1
The melting point of the first is higher: 138 °C for the first, 66 to 67 °C for the second.

Compared with `O=C1C(=O)c2ccccc2C2=C1SCC1(CCN(Cc3ccccc3F)CC1)O2`, `O=C1C(=O)c2ccccc2C2=C1SCC1(CCCN(C(=O)c3cccc(Cl)c3)CC1)O2` (stereo unspecified) is lower in melting point: 118 to 122 °C for the first, 98 to 100 °C for the second.

`Nc1c(Cl)cc(C(O)CNCCCCCCOCCc2ccccn2)cc1Cl` (stereo unspecified) and `CCN(CC)CCOc1ccc2cc3ccc(OCCN(CC)CC)cc3nc2c1` cannot be ordered by melting point: 94 to 96 °C for the first, 94 to 95 °C for the second.

Compared with `CC(=O)NS(=O)(=O)c1ccc(-n2sc3ccccc3c2=O)cc1`, `N#Cc1c(-c2cc3ccccc3s2)nn(-c2ccccc2)c1N` is higher in melting point: 254 to 255 °C for the first, 260 to 262 °C for the second.

First: CC(C)C1(C)N=C2c3ncc(C4OCCO4)cc3C(=O)N2C1=O (stereo unspecified)
Second: CCOc1cc2cc3c(c(-c4ccncc4)c2cc1OCC)C(=O)NC3=O
The melting point of the first is lower: 102 to 104 °C for the first, 210 to 213 °C for the second.

First: O=C(c1ccc(F)cc1)N1CCCC(F)(c2nc(-c3ccc[nH]3)no2)C1 (stereo unspecified)
Second: CC(C)C(=O)c1ccc(N2CCN(C)CC2)cc1
The melting point of the first is higher: 115 to 118 °C for the first, 74 to 76 °C for the second.

First: O=C(O)C1=Cc2cc(Cl)cc(-c3ccco3)c2OC1C(F)(F)F (stereo unspecified)
Second: CCc1ccnc(C(=O)c2[nH]c3ccc(Cl)cc3c2CC(=O)O)c1F
The melting point of the first is lower: 172 to 173 °C for the first, 208 °C for the second.

Compared with `CSc1cccc(-n2cnc(C(=O)O)c2)c1`, `CCCCc1nc(Cl)c(Cl)n1Cc1ccc(-n2cccc2C(=O)O)cc1` is lower in melting point: 190 to 192 °C for the first, 181 to 182 °C for the second.

First: CCOC(=O)[C@@H](O)CCNC(=O)[C@@H](CSC(C)=O)Cc1ccccc1C
Second: CCCCOc1c(CNC(=O)OC(C)(C)C)n(CC(C)(C)C)c(=O)c2ccc(F)cc12
The melting point of the first is lower: 48 to 52 °C for the first, 168 to 169 °C for the second.

First: Cn1ncc(/C=C/C(=O)O)c1-c1cccnc1
Second: Cc1cc(-c2noc3cc(O)ccc23)ccc1O
The melting point of the first is higher: 236 to 237 °C for the first, 233 to 235 °C for the second.

First: CCCCN(N=Nc1[nH]cnc1C(N)=O)C(C)=N
Second: CCCCc1cc(C=CC(=O)OC)c[nH]1
The melting point of the first is higher: 191 °C for the first, 65 to 67 °C for the second.

Compared with `Cc1ccc(-c2cnc(C#Cc3ccc(C)s3)s2)cc1`, `CCCCSc1nnc(-c2ccc(N)cc2)s1` is lower in melting point: 101 to 103 °C for the first, 91 °C for the second.

Compared with `Cc1c(O)c(C(C)(C)C)c(Cc2cc(C(C)(C)C)c(O)c(C(C)(C)C)c2)c(C)c1Cc1cc(C(C)(C)C)c(O)c(C(C)(C)C)c1`, `COc1ccc(N2CCCn3c2nc2c(Cl)ccc(C(OC)C(F)(F)F)c23)c(C)n1` (stereo unspecified) is higher in melting point: 140 °C for the first, 144 to 146 °C for the second.

Compared with `CC(=O)C1CCC2C3CCC4CC(OC(=O)C(F)(F)F)CCC4(C)C3C(=O)CC12C` (stereo unspecified), `O=C(C=CC(=O)Nc1ccccc1)NCc1cc(Br)cc2[nH]c(=O)c(=O)[nH]c12` is higher in melting point: 107 to 108 °C for the first, > 250 °C for the second.

Compound `O=COC(CCl)(CC(Cl)(Cl)Cl)c1cc(Cl)cc(Cl)c1` (stereo unspecified) has a melting point of 115 to 117 °C.
